Structures are written as SMILES. Where a name gives a salt, the structure may show the parent alone.

This is an account of results in patent US8853193B2, “Thienopyrimidines containing a substituted alkyl group for pharmaceutical compositions” (Boehringer Ingelheim International GmbH, priority 2010, dated 2014).

Chain of human Mnk2a (Q9HBH9 whole entry): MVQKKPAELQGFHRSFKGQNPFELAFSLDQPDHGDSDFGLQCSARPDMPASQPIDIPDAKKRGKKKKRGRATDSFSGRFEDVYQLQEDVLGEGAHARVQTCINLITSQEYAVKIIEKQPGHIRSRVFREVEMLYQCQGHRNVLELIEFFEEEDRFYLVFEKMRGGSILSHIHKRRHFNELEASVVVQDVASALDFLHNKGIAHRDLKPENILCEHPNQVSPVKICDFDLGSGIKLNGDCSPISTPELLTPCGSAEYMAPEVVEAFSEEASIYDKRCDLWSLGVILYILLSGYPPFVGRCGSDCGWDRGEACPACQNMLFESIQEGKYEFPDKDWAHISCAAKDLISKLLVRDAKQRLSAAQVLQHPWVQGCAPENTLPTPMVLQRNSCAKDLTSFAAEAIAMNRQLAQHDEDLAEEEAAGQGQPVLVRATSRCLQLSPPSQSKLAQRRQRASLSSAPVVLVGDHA

The experiment has as its target human Mnk2a (Homo sapiens (Human), UniProt Q9HBH9). The experiment is described as follows: Mnk2a in vitro kinase assay (indirect competitive fluorescence polarization). The format is biochemical. To be noted: pre-activated GST-Mnk2a 2.5 nM, 20 μM ATP, 30 μM substrate peptide; read-out: MNK2 IC50. The procedure: Inhibitory potency of compounds against Mnk1, Mnk2a and other kinases was assessed with assays based on a format known to those skilled in the art as the indirect (competitive) fluorescence polarization. The assay detection system comprises a small fluorophore-labeled phospho-peptide (termed ligand) bound to a phospho-specific antibody. The product generated by the kinase reaction competes with the ligand for antibody binding. Based on the larger molecular volume of the bound ligand, which results in a lower rotation rate in solution, its emitted light has a higher degree of polarization than the one from the free ligand.
In brief, the open reading frames of human Mnk1 and Mnk2a were amplified from cDNA using the forward/reverse primer pairs
(utilized restriction sites underlined), respectively, and cloned into the BamHI and SalI sites of the vector pGEX-4T1 (Amersham, Sweden, cat. no. 27-4580-01). These constructs allow prokaryotic expression of Mnk1 or Mnk2a as fusion protein with a N-terminal glutathione S-transferase (GST) tag, referred to as GST-Mnk1 or GST-Mnk2a. The following expression and purification procedure was identical for GST-Mnk1 and GST-Mnk2a, referring in general to GST-Mnk, when not distinguishing between the two isoforms. Expression of GST-Mnk was in E. coli BL21 (Merck Biosciences, Germany, cat. no. 69449). Cells were grown in LB-Bouillon (Merck, Germany, cat. no. 1.10285) supplemented with 100 μg/ml ampicillin (Sigma, Germany, cat. no. A9518) at 37° C. […] Cells harvested by centrifugation were resuspended in 10 ml lysis buffer (50 mM tris(hydroxymethyl)aminomethane hydrochloride (Tris/HCl, Sigma, Germany, cat. no. T5941) pH 7.5, 300 mM sodium chloride (NaCl, Sigma, Germany, cat. no. S7653), 5% (w/v) glycerol (Sigma, Germany, cat. no. G5516), 3 mM DTT dithiotreitol (DTT, Sigma, Germany, cat. no. D9779)) per gram wet weight cell pellet. Lysates were prepared by disruption of cells with a sonifier and subsequent clearing by centrifugation at 38000 g for 45 min at 4° C.
The lysate was applied to a GSTPrep FF 16/10 column (Amersham, Sweden, cat. no. 17-5234-01) equilibrated with lysis buffer. Removal of unbound material was with 3 column volumes (CV) lysis buffer. Elution was with 2 CV of elution buffer (50 mM Tris/HCl pH 7.5, 300 mM NaCl, 5% (w/v) glycerol, 20 mM glutathione (Sigma, Germany, cat. no. G4251)). Peak fractions were pooled and the protein transferred into storage buffer (50 mM Tris/HCl pH 7.5, 200 mM NaCl, 0.1 mM ethylene glycol[…] bis(2-aminoethylether)-N,N,N′,N′-tetraacetic acid (EGTA, Aldrich, Germany, cat. no. 23, 453-2), 1 mM DTT, 10% (w/v) glycerol, 0.5 M sucrose (Sigma, Germany, cat. no. S0389) by gel filtration on a PD10 desalting column (Amersham, Sweden, cat. no. 17-0851-01). Aliquots were shock frozen in liquid nitrogen and stored at −80° C.
Activation of Mnk1 and Mnk2a was at a concentration of 2.5 μM of either purified GST-Mnk1 or GST-Mnk2a by incubation with 150 nM pre-activated NHis-ERK2 (see ERK2 assay for preparation) and 50 μM adenosine triphosphate (ATP, Sigma, cat. no. A2699) in a buffer comprising 20 mM N-(2-hydroxyethyl)piperazine-N′-(2-ethanesulfonic acid) (HEPES, Fluka, Germany, cat. no 54459)/potassium hydroxide (KOH, Roth, Germany, cat. no 6751.1) pH 7.4, 10 mM magnesium chloride (MgCl2, Sigma, Germany, cat. no. M2670), 0.25 mM DTT, 0.05% (w/v) polyoxyethylene 20 stearylether (Brij 78, Sigma, Germany, cat. no. P4019) (HMDB buffer) for 45 min at 30° C. After the incubation, the preparation was aliquoted into single-use samples, shock frozen in liquid nitrogen, stored at −80° C. and utilized for Mnk1 or Mnk2a kinase assays as detailed below.
The serine residue phosphorylated by Mnk kinases is underlined.
The IC50 is the concentration that gives 50% inhibition. Regarding `CCNC(=O)C(C)Oc1cc(F)ccc1Nc1ncnc2sc(C(N)=O)c(C)c12` (centres unmarked) [Compound 31-5, 4-(2-(1-(Ethylamino)-1-oxopropan-2-yloxy)-4-fluorophenylamino)-5-methyl-thieno[2,3-d]pyrimidine-6-carboxamide], the IC50 amounted to 11 nM.

On to `Cc1c(C(=O)NCCCN(C)C)sc2ncnc(Nc3ccc(F)cc3OCCC(F)(F)F)c12` [Compound 32-38], for which the 50% inhibitory concentration (IC50) stood at 26 nM.

For `Cc1c(C(=O)NCCCN(C)C)sc2ncnc(Nc3cccnc3OC(C)CCN)c12` (centres unmarked) [Compound 16-3, 4-(2-(4-Aminobutan-2yloxy)pyridin-3-ylamino)-N-(3-(dimethylamino)propyl)-5-methylthieno[2,3-d]pyrimidine-6-carboxamide bis(2,2,2-trifluoroacetate)], the IC50 came out at 74 nM.

Take `Cc1c(C(=O)O)sc2ncnc(Nc3ccc(F)cc3OCCC(F)(F)F)c12` [Compound 32-11]: the IC50 was 14 nM.

In the case of `Cc1c(C(=O)NCC#CCN(C)C)sc2ncnc(Nc3cccnc3OC(C)C)c12` [Compound 36-16], the IC50 came to 22 nM.

On to `COCC(C)Oc1cc(F)ccc1Nc1ncnc2sc(C(=O)NCCO)c(C)c12` (centres unmarked) [Compound 32-36], for which the IC50 came to 25 nM.

As to `COC(=O)c1sc2ncnc(Nc3ccc(F)cc3OC(C)CCN(C)C)c2c1C` (centres unmarked) [Compound 14], the IC50 was determined as 1020 nM.

Take `Cc1c(C(=O)NC2CCN(C)CC2)sc2ncnc(Nc3ccc(C#N)cc3OC(CF)CF)c12` [Compound 50, 4-(4-Cyano-2-(2-fluoro-1-fluoromethyl-ethoxy)-phenylamino]-5-methyl-thieno[2,3-d]pyrimidine-6-carboxylic acid (1-methyl-piperidin-4-yl)-amide]: the IC50 was found to be 13 nM.

For the molecule `Cc1c(C(=O)NCCO)sc2ncnc(Nc3cccnc3OC(C)CCNS(C)(=O)=O)c12` (centres unmarked) [Compound 43, 4-[2-(3-Methanesulfonylamino-1-methyl-propoxy)-pyridin-3-ylamino]-5-methyl-thieno[2,3-d]pyrimidine-6-carboxylic acid (2-hydroxy-ethyl)-amide], the IC50 was found to be 62 nM.

Consider `COC(=O)c1sc2ncnc(Nc3ccc(F)cc3OC(C)C(=O)O)c2c1C` (centres unmarked) [Compound 55, 4-[2-(1-Carboxy-ethoxy)-4-fluoro-phenylamino]-5-methyl-thieno[2,3-d]pyrimidine-6-carboxylic acid methyl ester], for which the concentration for half-maximal inhibition (IC50) is 5400 nM.

Turning to `Cc1c(C(=O)NCC#CCN(C)C)sc2ncnc(Nc3ccc(F)cc3OC(CF)CF)c12` [Compound 23-9, 4-(2-(1,3-difluoro-propan-2-yloxy)-4-fluorophenylamino)-N-(4-(dimethylamino)-but-2ynyl)-5-methyl-thieno[2,3-d]pyrimidine-6-carboxamide], the IC50 came out at 7 nM.

In the case of `COC(=O)c1sc2ncnc(Nc3ccc(F)cc3OC(CF)CF)c2c1C` [Compound 23-1, Methyl 4-(2-(1,3-difluoropropan-2-yloxy)-4-fluorophenylamino)-5-methyl-thieno[2,3-d]pyrimidine-6-carboxylate], the IC50 amounted to 78 nM.

Consider `Cc1c(C(=O)NCCCN(C)C)sc2ncnc(Nc3ccc(F)cc3OCC3(CC#N)CC3)c12` [Compound 32-15], for which the IC50 was determined as 78 nM.

With `Cc1c(C(=O)NCC#N)sc2ncnc(Nc3ccc(C#N)cc3OC(CF)CF)c12` [Compound 53, 4-(4-Cyano-2-(2-fluoro-1-fluoromethyl-ethoxy)-phenylamino]-5-methyl-thieno[2,3-d]pyrimidine-6-carboxylic acid cyanomethyl-amide], the IC50 was determined as 7 nM.

For `COCC(C)Oc1ncccc1Nc1ncnc2sc(C(N)=O)c(C)c12` (centres unmarked) [Compound 28-3, 4-(2-(1-Methoxygrogan-2-yloxy)gyridin-3-ylamino)-5-methyl-thieno[2,3-d]gyrimidine-6-carboxamide], the concentration for half-maximal inhibition (IC50) turned out to be 26 nM.

For `Cc1c(C(N)=O)sc2ncnc(Nc3cccnc3OCCO)c12` [Compound 29-3, 4-(2-(2-Hydroxyethoxy)pyridin-3-ylamino)-5-methylthieno[2,3-d]pyrimidine-6-carboxamide], the half-inhibitory concentration (IC50) came to 86 nM.

`Cc1c(C(=O)O)sc2ncnc(Nc3ccc(F)cc3OCC3(CC#N)CC3)c12` [Compound 32-2]: the IC50 came out at 19 nM.

On to `COC(=O)c1sc2ncnc(Nc3ccc(F)cc3OC(C)CC(C)(C)O)c2c1C` (centres unmarked) [Compound 20-1, Methyl 4-(4-fluoro-2-(4-hydroxy-4-methylpentan-2-yloxy)phenylamino)-5-methyl-thieno[2,3-d]pyrimidine-6-carboxylate], for which the concentration for half-maximal inhibition (IC50) is 142 nM.

Consider `COCC(CF)Oc1cc(F)ccc1Nc1ncnc2sc(C(=O)NCCO)c(C)c12` (centres unmarked) [Compound 32-25], for which the IC50 was determined as 13 nM.

With `Cc1c(C(N)=O)sc2ncnc(Nc3cccnc3OC(C)C(F)(F)F)c12` (centres unmarked) [Compound 21-3, 5-Methyl-4-(2-(1,1,1-trifluoropropan-2-yloxy)pyridin-3-ylamino)thieno[2,3-d]pyrimidine-6-carboxamide], the concentration for half-maximal inhibition (IC50) is 11 nM.

`COCC(C)Oc1cc(F)ccc1Nc1ncnc2sc(C(=O)O)c(C)c12` (centres unmarked) [Compound 32-10]: the IC50 worked out at 18 nM.

On to `Cc1c(C(=O)O)sc2ncnc(Nc3cccnc3OCC(F)F)c12` [Compound 30-2, 4-(2-(2,2-Difluoroethoxy)pyridin-3-ylamino)-5-methylthieno[2,3-d]pyrimidine-6-carboxylic acid], for which the IC50 worked out at 20 nM.

On to `COC(=O)c1sc2ncnc(Nc3ccc(C#N)cc3OC(CF)CF)c2c1C` [Compound 47, Methyl 4-[4-cyano-2-(2-fluoro-1-fluoromethyl-ethoxy)phenylamino]-5-methyl-thieno[2,3-d]pyrimidine-6-carboxylate], for which the half-inhibitory concentration (IC50) turned out to be 125 nM.

In the case of `Cc1c(C(N)=O)sc2ncnc(Nc3cccnc3OCC3CC3(F)F)c12` (centres unmarked) [Compound 34-4], the concentration for half-maximal inhibition (IC50) came out at 15 nM.

As for `CNC(=O)c1sc2ncnc(Nc3cccnc3OC(C)C(F)(F)F)c2c1C` (centres unmarked) [Compound 21-6, N-Methyl-5-methyl-4-(2-(1,1,1-trifluoro-propan-2-yloxy)-pyridin-3-yl-amino)thieno[2,3-d]pyrimidine-6-N-methylcarboxamide], the IC50 is 12 nM.

On to `Cc1c(C(=O)O)sc2ncnc(Nc3cccnc3OC(C)C(F)(F)F)c12` (centres unmarked) [Compound 21-2, 5-Methyl-4-(2-(1,1,1-trifluoropropan-2-yloxy)pyridin-3-ylamino)thieno[2,3-d]pyrimidine-6-carboxylic acid], for which the half-inhibitory concentration (IC50) is 15 nM.

For `Cc1c(C(=O)NCCCCO)sc2ncnc(Nc3cccnc3OC(C)C)c12` [Compound 36-2, N-(4-Hydroxybutyl)-4-(2-isopropoxypyridin-3-ylamino)-5-methylthieno[2,3-d]pyrimidine-6-carboxamide], the concentration for half-maximal inhibition (IC50) was found to be 42 nM.

With `Cc1c(C(=O)NCCCN(C)C)sc2ncnc(Nc3ccc(F)cc3OC(C)CNC(=O)OC(C)(C)C)c12` (centres unmarked) [Compound 1-4, tert-Butyl 2-(2-(6-(3-(dimethymino)propyl-carbamoyl)-5-methyl-thieno[2,3-d]pyrimidin-4-ylamino)-5-fluoro-phenoxy)propyl-carbamate], the 50% inhibitory concentration (IC50) stood at 294 nM.

For the molecule `Cc1c(C(=O)N[C@@H]2C[C@H]2N)sc2ncnc(Nc3ccc(F)cc3OC(CF)CF)c12` (relative stereo) [Compound 25, N-((trans)-2-Aminocyclopropyl)-4-(2-(1,3-difluoropropan-2-yloxy)-4-fluorophenylamino)-5-methylthieno[2,3-d]pyrimidine-6-carboxamide hydrochloride], the IC50 turned out to be 12 nM.
